Test results: ChEMBL document CHEMBL5465560, “Selectivity Literature for EUbOPEN Chemogenomic Library” (2024)
Each block holds one molecule with its values, some of them ahead of it.

Experiments:
[1] = target: Calcium/calmodulin-dependent protein kinase kinase 2 (Homo sapiens) (UniProt Q96RR4); experiment: Selectivity interaction (ActivX KiNativ screen (kinase selectivity in THP-1 cell lysates)) EUB0000639a CAMKK2; assay type: subcellular; settings: lysate
[2] = target: Non-receptor tyrosine-protein kinase TYK2 (Homo sapiens, UniProt P29597); experiment: Selectivity interaction (ActivX KiNativ screen (kinase selectivity in THP-1 cell lysates)) EUB0000639a TYK2; assay type: subcellular; settings: lysate, at 0.04 µM
Non-receptor tyrosine-protein kinase TYK2, sequence (P29597 whole entry): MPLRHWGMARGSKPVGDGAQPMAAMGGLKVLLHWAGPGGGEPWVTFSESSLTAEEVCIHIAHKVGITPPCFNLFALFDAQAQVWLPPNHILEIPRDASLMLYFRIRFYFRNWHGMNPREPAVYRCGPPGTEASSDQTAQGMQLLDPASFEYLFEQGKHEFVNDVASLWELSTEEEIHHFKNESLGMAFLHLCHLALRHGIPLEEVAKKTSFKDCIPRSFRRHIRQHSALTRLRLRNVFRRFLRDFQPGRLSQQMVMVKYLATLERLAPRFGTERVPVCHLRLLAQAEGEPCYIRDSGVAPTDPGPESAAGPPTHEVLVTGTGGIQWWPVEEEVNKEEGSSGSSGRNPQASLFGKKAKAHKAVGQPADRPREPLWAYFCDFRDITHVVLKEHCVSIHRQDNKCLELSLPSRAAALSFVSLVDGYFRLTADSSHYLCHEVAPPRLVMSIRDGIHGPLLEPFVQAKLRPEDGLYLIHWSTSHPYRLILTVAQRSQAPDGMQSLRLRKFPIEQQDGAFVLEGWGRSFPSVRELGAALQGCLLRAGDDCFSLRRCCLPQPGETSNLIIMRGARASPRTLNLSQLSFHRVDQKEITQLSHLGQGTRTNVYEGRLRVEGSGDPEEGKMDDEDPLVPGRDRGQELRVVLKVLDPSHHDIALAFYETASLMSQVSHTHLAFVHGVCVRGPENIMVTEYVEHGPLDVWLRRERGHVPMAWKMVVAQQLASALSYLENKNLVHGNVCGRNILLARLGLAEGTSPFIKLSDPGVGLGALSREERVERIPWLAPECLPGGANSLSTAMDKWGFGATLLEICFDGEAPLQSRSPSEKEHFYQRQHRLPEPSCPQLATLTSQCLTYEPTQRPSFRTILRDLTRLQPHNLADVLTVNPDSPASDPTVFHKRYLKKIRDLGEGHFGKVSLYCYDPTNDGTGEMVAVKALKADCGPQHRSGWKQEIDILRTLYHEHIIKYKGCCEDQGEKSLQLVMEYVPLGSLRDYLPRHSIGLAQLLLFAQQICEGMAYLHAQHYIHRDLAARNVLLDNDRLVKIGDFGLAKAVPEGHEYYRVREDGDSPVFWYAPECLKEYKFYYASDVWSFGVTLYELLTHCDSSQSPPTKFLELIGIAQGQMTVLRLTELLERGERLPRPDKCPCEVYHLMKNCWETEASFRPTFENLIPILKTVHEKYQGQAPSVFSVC

[3] = target: T1, Serine/threonine-protein kinase ULK2 (Homo sapiens) (UniProt Q8IYT8); experiment: Selectivity interaction (KinomeScan (DiscoverX)) EUB0000655a ULK2; settings: at 10 µM
T1 sequence (whole entry): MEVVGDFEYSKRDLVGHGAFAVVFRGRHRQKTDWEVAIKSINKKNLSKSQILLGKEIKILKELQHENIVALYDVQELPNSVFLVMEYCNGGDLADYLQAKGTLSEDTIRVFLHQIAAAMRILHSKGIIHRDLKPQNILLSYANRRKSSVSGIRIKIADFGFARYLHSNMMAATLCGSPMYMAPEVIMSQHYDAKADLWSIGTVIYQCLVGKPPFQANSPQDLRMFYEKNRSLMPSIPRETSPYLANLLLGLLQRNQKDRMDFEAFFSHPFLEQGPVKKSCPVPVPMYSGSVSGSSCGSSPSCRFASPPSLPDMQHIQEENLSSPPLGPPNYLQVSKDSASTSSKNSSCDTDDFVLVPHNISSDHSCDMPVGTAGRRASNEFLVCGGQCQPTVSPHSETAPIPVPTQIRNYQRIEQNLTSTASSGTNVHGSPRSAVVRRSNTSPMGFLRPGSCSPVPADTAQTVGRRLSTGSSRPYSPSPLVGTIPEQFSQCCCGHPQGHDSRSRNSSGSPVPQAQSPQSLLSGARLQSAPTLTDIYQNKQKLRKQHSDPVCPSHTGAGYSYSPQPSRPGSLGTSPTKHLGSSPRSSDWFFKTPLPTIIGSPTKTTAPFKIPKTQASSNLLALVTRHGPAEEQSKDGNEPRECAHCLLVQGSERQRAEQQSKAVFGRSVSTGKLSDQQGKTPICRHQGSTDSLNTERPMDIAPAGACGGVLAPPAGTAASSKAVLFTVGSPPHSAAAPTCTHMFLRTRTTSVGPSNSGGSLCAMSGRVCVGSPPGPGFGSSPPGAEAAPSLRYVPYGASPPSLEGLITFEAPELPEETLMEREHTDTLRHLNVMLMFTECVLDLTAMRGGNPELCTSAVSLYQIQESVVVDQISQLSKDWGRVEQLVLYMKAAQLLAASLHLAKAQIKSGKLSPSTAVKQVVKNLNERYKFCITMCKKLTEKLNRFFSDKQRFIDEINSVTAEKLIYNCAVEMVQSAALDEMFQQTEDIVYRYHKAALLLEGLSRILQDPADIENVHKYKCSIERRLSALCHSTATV

[4] = target: TGF-beta receptor type-2 (Homo sapiens) (UniProt P37173); experiment: Selectivity interaction (KinomeScan (DiscoverX)) EUB0000229b TGFBR2; settings: at 10 µM
TGF-beta receptor type-2 (Homo sapiens), sequence (P37173 whole entry): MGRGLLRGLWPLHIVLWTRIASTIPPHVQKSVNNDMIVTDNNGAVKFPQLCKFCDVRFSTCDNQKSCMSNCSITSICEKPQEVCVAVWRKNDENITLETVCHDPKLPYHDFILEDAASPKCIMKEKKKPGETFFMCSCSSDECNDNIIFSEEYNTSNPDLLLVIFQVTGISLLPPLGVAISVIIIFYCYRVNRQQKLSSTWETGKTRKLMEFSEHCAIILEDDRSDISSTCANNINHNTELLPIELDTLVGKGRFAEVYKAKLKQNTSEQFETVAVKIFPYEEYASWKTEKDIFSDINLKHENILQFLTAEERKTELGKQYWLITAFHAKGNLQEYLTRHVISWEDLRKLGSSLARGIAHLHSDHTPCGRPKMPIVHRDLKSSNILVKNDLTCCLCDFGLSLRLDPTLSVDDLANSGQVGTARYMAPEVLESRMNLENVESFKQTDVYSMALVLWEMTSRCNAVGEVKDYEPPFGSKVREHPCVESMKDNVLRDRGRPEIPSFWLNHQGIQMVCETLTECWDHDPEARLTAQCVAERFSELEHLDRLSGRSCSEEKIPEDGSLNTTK

[5] = target: T2, Serine/threonine-protein kinase TAO2 (Homo sapiens) (UniProt Q9UL54); experiment: Selectivity interaction (KinomeScan (DiscoverX)) EUB0000229b TAOK2; settings: at 10 µM
T2 sequence (whole entry): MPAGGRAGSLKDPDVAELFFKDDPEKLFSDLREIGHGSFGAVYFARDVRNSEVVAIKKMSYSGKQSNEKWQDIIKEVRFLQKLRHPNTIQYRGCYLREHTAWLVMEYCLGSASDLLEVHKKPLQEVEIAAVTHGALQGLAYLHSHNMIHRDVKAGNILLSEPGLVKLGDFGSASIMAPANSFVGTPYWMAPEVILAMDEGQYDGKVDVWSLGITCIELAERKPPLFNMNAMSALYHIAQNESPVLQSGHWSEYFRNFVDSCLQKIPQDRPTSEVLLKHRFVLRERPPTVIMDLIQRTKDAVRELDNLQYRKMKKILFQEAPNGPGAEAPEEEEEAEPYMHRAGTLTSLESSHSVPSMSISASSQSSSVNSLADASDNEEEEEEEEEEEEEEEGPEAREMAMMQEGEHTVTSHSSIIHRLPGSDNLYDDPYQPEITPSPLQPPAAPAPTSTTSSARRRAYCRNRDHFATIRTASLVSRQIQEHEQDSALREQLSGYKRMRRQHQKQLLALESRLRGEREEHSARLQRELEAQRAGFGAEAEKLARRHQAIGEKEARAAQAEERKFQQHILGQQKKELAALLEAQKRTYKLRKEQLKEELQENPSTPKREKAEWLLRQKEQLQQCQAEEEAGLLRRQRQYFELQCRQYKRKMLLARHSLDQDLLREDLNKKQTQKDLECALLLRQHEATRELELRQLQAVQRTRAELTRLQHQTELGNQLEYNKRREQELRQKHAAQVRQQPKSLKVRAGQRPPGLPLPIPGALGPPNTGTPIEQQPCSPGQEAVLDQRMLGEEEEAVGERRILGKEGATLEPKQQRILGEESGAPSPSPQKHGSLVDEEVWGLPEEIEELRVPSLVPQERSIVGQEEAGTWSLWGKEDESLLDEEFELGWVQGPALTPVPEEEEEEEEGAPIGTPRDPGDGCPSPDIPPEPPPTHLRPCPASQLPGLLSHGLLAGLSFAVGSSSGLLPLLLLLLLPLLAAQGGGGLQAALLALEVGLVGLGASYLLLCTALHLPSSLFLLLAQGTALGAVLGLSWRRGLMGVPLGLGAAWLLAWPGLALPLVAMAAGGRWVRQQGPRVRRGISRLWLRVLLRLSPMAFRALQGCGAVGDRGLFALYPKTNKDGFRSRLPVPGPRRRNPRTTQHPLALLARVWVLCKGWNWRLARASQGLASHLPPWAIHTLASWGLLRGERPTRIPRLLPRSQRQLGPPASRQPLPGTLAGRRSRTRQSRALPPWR

[6] = test system: Epidermal growth factor receptor (Homo sapiens), P00533 [UNDEFINED MUTATION]; experiment: Selectivity interaction (KinomeScan (DiscoverX)) EUB0000618a EGFR; settings: at 10 µM
Epidermal growth factor receptor (Homo sapiens), P00533 [UNDEFINED MUTATION], sequence (P00533 whole entry, looked up, change not shown): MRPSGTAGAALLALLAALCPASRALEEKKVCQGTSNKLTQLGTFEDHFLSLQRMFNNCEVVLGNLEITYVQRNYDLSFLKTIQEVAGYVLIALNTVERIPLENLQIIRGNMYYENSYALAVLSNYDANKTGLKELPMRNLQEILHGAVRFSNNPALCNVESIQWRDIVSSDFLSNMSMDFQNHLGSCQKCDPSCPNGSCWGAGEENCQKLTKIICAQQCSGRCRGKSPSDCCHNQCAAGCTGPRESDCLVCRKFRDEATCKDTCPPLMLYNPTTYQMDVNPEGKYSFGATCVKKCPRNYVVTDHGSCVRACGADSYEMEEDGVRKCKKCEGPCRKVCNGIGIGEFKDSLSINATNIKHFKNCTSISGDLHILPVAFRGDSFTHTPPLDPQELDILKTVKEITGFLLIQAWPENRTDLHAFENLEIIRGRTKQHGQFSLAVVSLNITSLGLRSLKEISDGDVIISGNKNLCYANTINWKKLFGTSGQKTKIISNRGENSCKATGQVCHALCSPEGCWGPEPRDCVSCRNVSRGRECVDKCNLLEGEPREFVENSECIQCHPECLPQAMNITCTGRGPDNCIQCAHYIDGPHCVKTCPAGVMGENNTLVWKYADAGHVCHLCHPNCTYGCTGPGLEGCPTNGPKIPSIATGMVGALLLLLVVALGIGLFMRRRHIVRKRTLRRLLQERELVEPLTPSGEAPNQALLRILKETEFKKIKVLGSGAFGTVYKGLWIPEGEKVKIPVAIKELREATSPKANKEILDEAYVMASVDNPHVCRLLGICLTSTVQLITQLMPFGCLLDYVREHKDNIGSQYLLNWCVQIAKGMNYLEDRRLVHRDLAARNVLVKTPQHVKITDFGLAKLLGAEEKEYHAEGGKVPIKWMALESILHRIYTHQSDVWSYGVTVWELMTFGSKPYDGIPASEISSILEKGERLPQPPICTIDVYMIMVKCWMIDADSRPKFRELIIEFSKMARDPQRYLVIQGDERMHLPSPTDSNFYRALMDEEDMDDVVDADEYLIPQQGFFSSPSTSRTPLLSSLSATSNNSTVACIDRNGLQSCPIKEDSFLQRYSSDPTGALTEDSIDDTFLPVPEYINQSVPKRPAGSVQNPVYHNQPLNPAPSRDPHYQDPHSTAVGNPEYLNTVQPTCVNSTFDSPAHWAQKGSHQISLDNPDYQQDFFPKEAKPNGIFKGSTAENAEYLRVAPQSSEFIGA

Calcium/calmodulin-dependent protein kinase kinase 2 (Homo sapiens), sequence (Q96RR4 2-588 limits assumed): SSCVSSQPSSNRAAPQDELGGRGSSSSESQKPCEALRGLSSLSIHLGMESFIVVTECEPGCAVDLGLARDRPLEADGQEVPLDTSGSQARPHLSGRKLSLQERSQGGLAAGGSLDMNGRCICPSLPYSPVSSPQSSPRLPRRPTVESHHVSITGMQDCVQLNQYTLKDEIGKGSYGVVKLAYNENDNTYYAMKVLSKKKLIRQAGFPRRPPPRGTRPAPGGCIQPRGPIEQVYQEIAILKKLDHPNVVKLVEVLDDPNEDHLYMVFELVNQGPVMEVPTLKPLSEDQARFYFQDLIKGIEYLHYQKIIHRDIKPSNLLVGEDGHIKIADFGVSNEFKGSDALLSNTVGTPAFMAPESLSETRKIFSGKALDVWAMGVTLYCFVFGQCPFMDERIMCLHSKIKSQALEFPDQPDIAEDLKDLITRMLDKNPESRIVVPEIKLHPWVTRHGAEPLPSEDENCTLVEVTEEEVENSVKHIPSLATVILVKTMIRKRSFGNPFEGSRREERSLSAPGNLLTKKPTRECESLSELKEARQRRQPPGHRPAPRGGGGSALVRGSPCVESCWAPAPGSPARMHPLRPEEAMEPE

% of inhibition ([1]; at 0.01 µM): 5.1%
% of inhibition ([1]; at 0.04 µM): 9.8%
% of inhibition ([1]; at 0.2 µM): 8.1%
% of inhibition ([1]; at 1 µM): 37.6%
% of inhibition ([1]; at 5 µM): 63.5%
% of inhibition [2]: 6.4%
Structure (SMILES): CC[C@@H]1[C@H](F)C(=O)N[C@@H]1COc1nccc2cc(C(N)=O)c(OC)cc12 [ZIMLOVISERTIB]

Structure (SMILES): CN(C)CCOc1ccc(-c2nc(-c3ccncc3)c(-c3ccc4c(c3)CC/C4=N\O)[nH]2)cc1
% of control [3]: 90%

Structure (SMILES): COc1cc(N(C)c2ccnc3ccc(C(F)(F)F)cc23)cc(OC)c1OC
% binding [4]: 94%
% binding [5]: 80%

Structure (SMILES): O[C@H]1CC[C@H](Nc2ncc3nc(Nc4c(F)cc(F)cc4F)n([C@H]4CCOC4)c3n2)CC1
% of control [6]: 9.4%
